Measured values as given in BigSolDB 2.1.

Work on Clc1ccc2c(c1)Nc1ccccc1S2 yielded a solubility (mole fraction) (in 2-butanone, 283.15 K) of 0.0337, a solubility (mole fraction) (in 2-butanone, 285.65 K) of 0.0356 and a solubility (mole fraction) (in 2-butanone, 288.15 K) of 0.0378. It also gave a solubility (mole fraction) (in 2-butanone, 290.65 K) of 0.0402, a solubility (mole fraction) (in 2-butanone, 293.15 K) of 0.0427 and a solubility (mole fraction) (in 2-butanone, 295.65 K) of 0.0455. The solubility (mole fraction) (in 2-butanone, 298.15 K) was 0.0484, the solubility (mole fraction) (in 2-butanone, 300.65 K) was 0.0513 and the solubility (mole fraction) (in 2-butanone, 303.15 K) was 0.0546. For the same compound, the solubility (mole fraction) (in 2-butanone, 305.65 K) was 0.0578, the solubility (mole fraction) (in 2-butanone, 308.15 K) was 0.0612 and the solubility (mole fraction) (in 2-butanone, 310.65 K) was 0.0646. It also gave a solubility (mole fraction) (in 2-butanone, 313.15 K) of 0.0683, a solubility (mole fraction) (in 2-butanone, 315.65 K) of 0.0727 and a solubility (mole fraction) (in 2-butanone, 318.15 K) of 0.0771. It also gave a solubility (mole fraction) (in acetone, 283.15 K) of 0.0268, a solubility (mole fraction) (in acetone, 285.65 K) of 0.0281 and a solubility (mole fraction) (in acetone, 288.15 K) of 0.03. The solubility (mole fraction) (in acetone, 290.65 K) was 0.0317, the solubility (mole fraction) (in acetone, 293.15 K) was 0.0336 and the solubility (mole fraction) (in acetone, 295.65 K) was 0.0356. It also gave a solubility (mole fraction) (in acetone, 298.15 K) of 0.0378, a solubility (mole fraction) (in acetone, 300.65 K) of 0.0399 and a solubility (mole fraction) (in acetone, 303.15 K) of 0.0421. The solubility (mole fraction) (in acetone, 305.65 K) was 0.0443, the solubility (mole fraction) (in acetone, 308.15 K) was 0.0469 and the solubility (mole fraction) (in acetone, 310.65 K) was 0.0493. For the same compound, the solubility (mole fraction) (in acetone, 313.15 K) was 0.0518, the solubility (mole fraction) (in acetone, 315.65 K) was 0.0544 and the solubility (mole fraction) (in acetone, 318.15 K) was 0.0575. The solubility (mole fraction) (in acetonitrile, 283.15 K) was 0.00354, the solubility (mole fraction) (in acetonitrile, 285.65 K) was 0.00378 and the solubility (mole fraction) (in acetonitrile, 288.15 K) was 0.00406. The solubility (mole fraction) (in acetonitrile, 290.65 K) was 0.00435, the solubility (mole fraction) (in acetonitrile, 293.15 K) was 0.00467 and the solubility (mole fraction) (in acetonitrile, 295.65 K) was 0.00498. It also gave a solubility (mole fraction) (in acetonitrile, 298.15 K) of 0.00532, a solubility (mole fraction) (in acetonitrile, 300.65 K) of 0.00564 and a solubility (mole fraction) (in acetonitrile, 303.15 K) of 0.006. For the same compound, the solubility (mole fraction) (in acetonitrile, 305.65 K) was 0.00633, the solubility (mole fraction) (in acetonitrile, 308.15 K) was 0.00672 and the solubility (mole fraction) (in acetonitrile, 310.65 K) was 0.0071. The solubility (mole fraction) (in acetonitrile, 313.15 K) was 0.00756, the solubility (mole fraction) (in acetonitrile, 315.65 K) was 0.00795 and the solubility (mole fraction) (in acetonitrile, 318.15 K) was 0.00837. It also gave a solubility (mole fraction) (in ethanol, 283.15 K) of 0.00431, a solubility (mole fraction) (in ethanol, 285.65 K) of 0.00446 and a solubility (mole fraction) (in ethanol, 288.15 K) of 0.00465. It also gave a solubility (mole fraction) (in ethanol, 290.65 K) of 0.00486, a solubility (mole fraction) (in ethanol, 293.15 K) of 0.00505 and a solubility (mole fraction) (in ethanol, 295.65 K) of 0.00525. The solubility (mole fraction) (in ethanol, 298.15 K) was 0.00546, the solubility (mole fraction) (in ethanol, 300.65 K) was 0.00569 and the solubility (mole fraction) (in ethanol, 303.15 K) was 0.00592. For the same compound, the solubility (mole fraction) (in ethanol, 305.65 K) was 0.00617, the solubility (mole fraction) (in ethanol, 308.15 K) was 0.00641 and the solubility (mole fraction) (in ethanol, 310.65 K) was 0.00667. It also gave a solubility (mole fraction) (in ethanol, 313.15 K) of 0.00695, a solubility (mole fraction) (in ethanol, 315.65 K) of 0.00723 and a solubility (mole fraction) (in ethanol, 318.15 K) of 0.00756. The solubility (mole fraction) (in ethyl acetate, 283.15 K) was 0.0156, the solubility (mole fraction) (in ethyl acetate, 285.65 K) was 0.0173 and the solubility (mole fraction) (in ethyl acetate, 288.15 K) was 0.0194. For the same compound, the solubility (mole fraction) (in ethyl acetate, 290.65 K) was 0.0216, the solubility (mole fraction) (in ethyl acetate, 293.15 K) was 0.024 and the solubility (mole fraction) (in ethyl acetate, 295.65 K) was 0.0265. It also gave a solubility (mole fraction) (in ethyl acetate, 298.15 K) of 0.0291, a solubility (mole fraction) (in ethyl acetate, 300.65 K) of 0.0323 and a solubility (mole fraction) (in ethyl acetate, 303.15 K) of 0.0357. It also gave a solubility (mole fraction) (in ethyl acetate, 305.65 K) of 0.0397, a solubility (mole fraction) (in ethyl acetate, 308.15 K) of 0.0435 and a solubility (mole fraction) (in ethyl acetate, 310.65 K) of 0.0484. It also gave a solubility (mole fraction) (in ethyl acetate, 313.15 K) of 0.0528, a solubility (mole fraction) (in ethyl acetate, 315.65 K) of 0.0575 and a solubility (mole fraction) (in ethyl acetate, 318.15 K) of 0.0625. The solubility (mole fraction) (in isopropanol, 283.15 K) was 0.0038, the solubility (mole fraction) (in isopropanol, 285.65 K) was 0.00397 and the solubility (mole fraction) (in isopropanol, 288.15 K) was 0.00415. For the same compound, the solubility (mole fraction) (in isopropanol, 290.65 K) was 0.00433, the solubility (mole fraction) (in isopropanol, 293.15 K) was 0.00454 and the solubility (mole fraction) (in isopropanol, 295.65 K) was 0.00473. The solubility (mole fraction) (in isopropanol, 298.15 K) was 0.00493, the solubility (mole fraction) (in isopropanol, 300.65 K) was 0.00513 and the solubility (mole fraction) (in isopropanol, 303.15 K) was 0.00536. The solubility (mole fraction) (in isopropanol, 305.65 K) was 0.00556, the solubility (mole fraction) (in isopropanol, 308.15 K) was 0.0058 and the solubility (mole fraction) (in isopropanol, 310.65 K) was 0.00605. It also gave a solubility (mole fraction) (in isopropanol, 313.15 K) of 0.0063, a solubility (mole fraction) (in isopropanol, 315.65 K) of 0.00657 and a solubility (mole fraction) (in isopropanol, 318.15 K) of 0.00687. It also gave a solubility (mole fraction) (in methanol, 283.15 K) of 0.00465, a solubility (mole fraction) (in methanol, 285.65 K) of 0.00483 and a solubility (mole fraction) (in methanol, 288.15 K) of 0.00502. It also gave a solubility (mole fraction) (in methanol, 290.65 K) of 0.00525, a solubility (mole fraction) (in methanol, 293.15 K) of 0.00545 and a solubility (mole fraction) (in methanol, 295.65 K) of 0.0057. For the same compound, the solubility (mole fraction) (in methanol, 298.15 K) was 0.00594, the solubility (mole fraction) (in methanol, 300.65 K) was 0.0062 and the solubility (mole fraction) (in methanol, 303.15 K) was 0.00647. It also gave a solubility (mole fraction) (in methanol, 305.65 K) of 0.00673, a solubility (mole fraction) (in methanol, 308.15 K) of 0.00701 and a solubility (mole fraction) (in methanol, 310.65 K) of 0.00728. It also gave a solubility (mole fraction) (in methanol, 313.15 K) of 0.00758, a solubility (mole fraction) (in methanol, 315.65 K) of 0.00786 and a solubility (mole fraction) (in methanol, 318.15 K) of 0.00819. It also gave a solubility (mole fraction) (in n-butanol, 283.15 K) of 0.00328, a solubility (mole fraction) (in n-butanol, 285.65 K) of 0.00344 and a solubility (mole fraction) (in n-butanol, 288.15 K) of 0.00361. It also gave a solubility (mole fraction) (in n-butanol, 290.65 K) of 0.00381, a solubility (mole fraction) (in n-butanol, 293.15 K) of 0.00401 and a solubility (mole fraction) (in n-butanol, 295.65 K) of 0.00422. It also gave a solubility (mole fraction) (in n-butanol, 298.15 K) of 0.00445, a solubility (mole fraction) (in n-butanol, 300.65 K) of 0.00468 and a solubility (mole fraction) (in n-butanol, 303.15 K) of 0.00492. The solubility (mole fraction) (in n-butanol, 305.65 K) was 0.00518, the solubility (mole fraction) (in n-butanol, 308.15 K) was 0.00543 and the solubility (mole fraction) (in n-butanol, 310.65 K) was 0.0057. The solubility (mole fraction) (in n-butanol, 313.15 K) was 0.00596, the solubility (mole fraction) (in n-butanol, 315.65 K) was 0.00624 and the solubility (mole fraction) (in n-butanol, 318.15 K) was 0.00653. The solubility (mole fraction) (in n-propanol, 283.15 K) was 0.0041, the solubility (mole fraction) (in n-propanol, 285.65 K) was 0.00426 and the solubility (mole fraction) (in n-propanol, 288.15 K) was 0.00446. For the same compound, the solubility (mole fraction) (in n-propanol, 290.65 K) was 0.00466, the solubility (mole fraction) (in n-propanol, 293.15 K) was 0.00487 and the solubility (mole fraction) (in n-propanol, 295.65 K) was 0.00509. It also gave a solubility (mole fraction) (in n-propanol, 298.15 K) of 0.0053, a solubility (mole fraction) (in n-propanol, 300.65 K) of 0.00552 and a solubility (mole fraction) (in n-propanol, 303.15 K) of 0.00575. It also gave a solubility (mole fraction) (in n-propanol, 305.65 K) of 0.006, a solubility (mole fraction) (in n-propanol, 308.15 K) of 0.00622 and a solubility (mole fraction) (in n-propanol, 310.65 K) of 0.00649. The solubility (mole fraction) (in n-propanol, 313.15 K) was 0.00678, the solubility (mole fraction) (in n-propanol, 315.65 K) was 0.00705 and the solubility (mole fraction) (in n-propanol, 318.15 K) was 0.00737.
